Experimental data: patent publication US8486931B2, “Substituted oxindole compounds” (Abbott GmbH & Co. KG, priority 2007, dated 2013)

target: T1, human vasopressin V1b receptor (Homo sapiens, UniProt P47901); experiment: Vasopressin V1b receptor binding assay; conditions: membranes from CHO-K1 cells with stably expressed human V1b receptors, 1.5 nM 3H-AVP displacement; with more than one stereogenic center: the diastereomer with stronger affinity
T1 construct: expressed in transfected cells; host or cells: CHO-K1 (cell line hV1b-3H2_CHO), membrane preparation
T1 sequence (P47901 1-424): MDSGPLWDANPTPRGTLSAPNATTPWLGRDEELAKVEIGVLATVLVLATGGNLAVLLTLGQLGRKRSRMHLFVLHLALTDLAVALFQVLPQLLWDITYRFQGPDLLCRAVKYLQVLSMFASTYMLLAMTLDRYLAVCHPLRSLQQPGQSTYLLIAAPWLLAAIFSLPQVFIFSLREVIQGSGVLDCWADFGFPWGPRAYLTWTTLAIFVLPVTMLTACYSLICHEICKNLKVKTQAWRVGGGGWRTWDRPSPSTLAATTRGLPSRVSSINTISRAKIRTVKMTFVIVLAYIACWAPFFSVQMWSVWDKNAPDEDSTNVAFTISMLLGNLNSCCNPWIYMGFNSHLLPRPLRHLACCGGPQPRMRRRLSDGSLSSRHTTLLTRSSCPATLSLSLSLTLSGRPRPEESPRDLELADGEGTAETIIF
Outline: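 Membranes bearing human V1b receptor incubated 60 min at room temperature in 50 mM Tris, 10 mM MgCl2, 0.1% BSA, pH 7.4, 2% DMSO, triplicate.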

Ki	SMILES
10 to 50 nM	CCOc1ccc(OC)cc1C1(N2CCC(N3CCNCC3)CC2)C(=O)N(S(=O)(=O)c2ccc(OC)cn2)c2ccc(C#N)cc21 (single isomer, unassigned; (+)) [Example 156, (+)-5-Cyano-3-(2-ethoxy-5-methoxy-phenyl)-1-(5-methoxy-pyridine-2-sulfonyl)-3-(4-piperazin-1-yl-piperidin-1-yl)-2,3-dihydro-1H-indol-2-one]
10 to 50 nM	CCOc1ccccc1C1(N2CCN(C3CCN(C)CC3)CC2)C(=O)N(S(=O)(=O)c2ccc(OC)cn2)c2ccc(C#N)cc21 (racemic) [Example 83, (±)-5-Cyano-3-(2-ethoxyphenyl)-1-(5-methoxypyridine-2-sulfonyl)-3-[4-(1-methyl-piperidin-4-yl)piperazin-1-yl]-2,3-dihydro-1H-indol-2-one]
< 10 nM	CCOc1cc(OC)ccc1C1(N2CCC(N3CCNCC3)CC2)C(=O)N(S(=O)(=O)c2ccc(OC)cn2)c2ccc(C#N)cc21 (racemic) [Example 174, (±)-5-Cyano-3-(2-ethoxy-4-methoxy-phenyl)-1-(5-methoxy-pyridine-2-sulfonyl)-3-(4-piperazin-1-yl-piperidin-1-yl)-2,3-dihydro-1H-indol-2-one]
< 10 nM	CCOc1ccc(C)cc1C1(N2CCN(c3ccnc(C)c3)CC2)C(=O)N(S(=O)(=O)c2ccc(OC)cn2)c2ccc(C#N)cc21 (racemic) [Example 180, (±)-5-Cyano-3-(2-ethoxy-5-methyl-phenyl)-1-(5-methoxy-pyridine-2-sulfonyl)-3-[4-(2-methyl-pyridin-4-yl)-piperazin-1-yl]-2,3-dihydro-1H-indol-2-one]

Second part, the compound before the results:

SMILES	Ki
CCOc1ccccc1C1(N2CCN(c3ccncc3)CC2)C(=O)N(S(=O)(=O)c2ccc(OC)c3cccnc23)c2ccc(C#N)cc21 (racemic) [Example 25, (±)-5-Cyano-3-(2-ethoxyphenyl)-1-(5-methoxyquinoline-8-sulfonyl)-3-(4-pyridin-4-yl-piperazin-1-yl)-2,3-dihydro-1H-indol-2-one]	< 10 nM
CCOc1nc(Cl)ccc1C1(N2CC3CN(c4ccnc(C)c4)CC3C2)C(=O)N(S(=O)(=O)c2ccc(OC)cn2)c2ccc(C#N)cc21 (racemic) [Example 149, (±)-5-Cyano-3-(6-chloro-2-ethoxy-pyridin-3-yl)-1-(5-methoxy-pyridine-2-sulfonyl)-3-[5-(2-methyl-pyridin-4-yl)-hexahydro-pyrrolo[3,4-c]pyrrol-2-yl]-2,3-dihydro-1H-indol-2-one]	< 10 nM
CCOc1ccc(OC)cc1C1(N2CCN(c3ccnc(CC)c3)CC2)C(=O)N(S(=O)(=O)c2ccc(OC)cn2)c2ccc(C#N)cc21 (racemic) [Example 146, (±)-5-Cyano-3-(2-ethoxy-5-methoxy-phenyl)-3-[4-(2-ethyl-pyridin-4-yl)-piperazin-1-yl]-1-(5-methoxy-pyridine-2-sulfonyl)-2,3-dihydro-1H-indol-2-one]	< 10 nM
CCOc1ccc(CC)cc1C1(N2CCN(c3ccnc(C)c3)CC2)C(=O)N(S(=O)(=O)c2ccc(OC)cn2)c2ccc(C#N)cc21 (racemic) [Example 165, (±)-5-Cyano-3-(2-ethoxy-5-ethyl-phenyl)-1-(5-methoxy-pyridine-2-sulfonyl)-3-[4-(2-methyl-pyridin-4-yl)-piperazin-1-yl]-2,3-dihydro-1H-indol-2-one]	< 10 nM
CCOc1nc(Cl)ccc1C1(N2CCCN(c3ccnc(C)c3)CC2)C(=O)N(S(=O)(=O)c2ccc(OC)cn2)c2ccc(C#N)cc21 (racemic) [Example 177, (±)-5-Cyano-3-(6-chloro-2-ethoxy-pyridin-3-yl)-1-(5-methoxy-pyridine-2-sulfonyl)-3-[4-(2-methyl-pyridin-4-yl)-[1,4]diazepan-1-yl]-2,3-dihydro-1H-indol-2-one]	< 10 nM
CCOc1cc(OC)ccc1C1(N2CCN(c3ccncc3)CC2)C(=O)N(S(=O)(=O)c2cccc3cccnc23)c2ccc(C#N)cc21 (racemic) [Example 157, (±)-5-Cyano-3-(2-ethoxy-4-methoxy-phenyl)-3-(4-pyridin-4-yl-piperazin-1-yl)-1-(quinoline-8-sulfonyl)-2,3-dihydro-1H-indol-2-one]	10 to 50 nM
